The target of one series is CDK2:CCNE1 (Homo sapiens (Human), UniProt P24941). Put plainly: NanoBRET assay in MCF-7 cells, CDK2. The class given is cell-based. The note with it: transfected MCF-7 cells, 2 hours, n = 1 or average. The protocol:
Compounds were tested in breast cancer cell line MCF-7 to assess inhibition of CDK1, CDK2, and CDK4 activity. […] The next day media were evacuated from the wells using the Bluewasher centrifugal plate washer (Bluecatbio) and 10 μL/well phenol red free OptiMEM was then added using a Multidrop Combi. […] Immediately after compound addition, a Tecan HP300 dispensor was used to dispense the relevant NanoBRET™ tracer to the CDK1 wells (12.5 nl, 400 μM, NanoBRET™ TE Tracer K-9), the CDK2 wells (12.5 nl, 200 μM, NanoBRET™ TE Tracer K-9), and the CDK4 wells (8 nl, 100 μM, NanoBRET™ TE Tracer K-7) and the plates were incubated for 2 hours at 37° C. and 5% CO2. […] The plates were incubated in subdued lighting for 10 minutes and then read on a Pherastar FS plate reader (BMG Technologies) using a NanoBRET™ filter module (460±80 nm/610 nm-LP). The ratio values were normalized to controls and the IC50 values of test compounds determined using Genedata Screener software.
(Bioluminescence resonance energy transfer reports proximity on the nanometre scale.)

Another series concerns the target CDK1:CCNB1 (Homo sapiens (Human), UniProt P06493). Put plainly: NanoBRET assay in MCF-7 cells, CDK1. The conditions noted are these: NanoBRET, transfected MCF-7 cells, 2 hours; n = 1 or average; read-out: CDK1 IC50. The class given is cell-based. The protocol:
(§1) Compounds were tested in breast cancer cell line MCF-7 to assess inhibition of CDK1, CDK2, and CDK4 activity. MCF-7 cells transiently transfected with CDK1:CCNB1, CDK2:CCNE1, or CDK4:CCND1 were harvested at a density of 1E5 cells/mL in complete media, seeded 20 μL/well into 384-well Greiner 784080 plates using a Multidrop Combi, and incubated overnight at 37° C. and 5% CO2. The next day media were evacuated from the wells using the Bluewasher centrifugal plate washer (Bluecatbio) and 10 μL/well phenol red free OptiMEM was then added using a Multidrop Combi. […] Immediately after compound addition, a Tecan HP300 dispensor was used to dispense the relevant NanoBRET™ tracer to the CDK1 wells (12.5 nl, 400 μM, NanoBRET™ TE Tracer K-9), the CDK2 wells (12.5 nl, 200 μM, NanoBRET™ TE Tracer K-9), and the CDK4 wells (8 nl, 100 μM, NanoBRET™ TE Tracer K-7) and the plates were incubated for 2 hours at 37° C. and 5% CO2. The plates were allowed to cool for 10 minutes at room temperature and 5 μL/well of TE Nano-Glo®Substrate/Inhibitor at 2.4 μM and 1:500 respectively (N2162 Promega) was added. The plates were incubated in subdued lighting for 10 minutes and then read on a Pherastar FS plate reader (BMG Technologies) using a NanoBRET™ filter module (460±80 nm/610 nm-LP). The ratio values were normalized to controls and the IC50 values of test compounds determined using Genedata Screener software.

The target of the next series is CDK4:CCND1 (Homo sapiens (Human), UniProt P11802). Put plainly: NanoBRET assay in MCF-7 cells, CDK4. It counts as cell-based. The note with it: NanoBRET, transfected MCF-7 cells, 2 hours; n = 1 or average; read-out: CDK4 IC50. As to the method: as §1
Series [1] concerns NPM phosphorylation (Thr199, CDK2-cyclin E complex). Put plainly: NPM phosphorylation imaging assay in MCF-7 cells. The class given is cell-based. The note with it: Homo sapiens, 4N DNA cells. As to the method:
Compounds were tested to assess the effects of CDK2 inhibition in a cellular context. […] During the cell cycle, the CDK2-cyclin E complex phosphorylates NPM at Thr199 which is a prerequisite step for initiation of centrosome duplication.
The cells were fixed by addition of 40 μL/well of 8% paraformaldehyde and incubated at room temperature for 10 minutes. The plates were washed three times with 50 μL/well PBS using a Biotek EL406 plate washer and then permeabilized for 10 minutes at room temperature in 0.3% Triton X100 in PBS. After washing as before, the plates were blocked using 30 μL/well of 2% BSA (w/v) in PBS-T for at least 30 minutes at room temperature. […] Cells containing 4N DNA were selected using the Hoechst staining. Phospho-NPM levels were normalized to controls and the IC50 values of test compounds determined using Genedata Screener software.

The test system of series [2] is POLR2A Ser2 phosphorylation (CDK9). Put plainly: POLR2A Ser2 phosphorylation imaging assay in MCF-7 cells. The note with it: Homo sapiens, MCF7, 2 h, MCF-7 cells, 2 hours; read-out: POLR2A Ser2 phosphorylation IC50. It counts as cell-based. The protocol:
Compounds were tested to assess their effect on CDK9 activity in a cellular context. […] During the cell cycle, CDK9 is a component of a multiprotein complex that phosphorylates POLR2A Ser2 which results in transcription elongation.
[…] were fixed by addition of 40 μL/well of 8% paraformaldehyde and incubated for 10 minutes at room temperature. The plates were washed three times with 50 μL/well PBS using a Biotek EL406 plate washer and then permeabilized for 10 minutes at room temperature in 0.3% Triton X100 in PBS. After washing as before, the plates were blocked using 30 μL/well of 2% BSA (w/v) in PBS-T for over 30 minutes at room temperature. […] After washing in PBS as before, leaving each well in 40 μL of PBS, the plates were sealed and imaged on a Cell Insight imaging system (Thermo) with a 10× objective and 2 fields of view per well. POLR2A Ser2levels were normalized to controls and the IC50 values of test compounds determined using Genedata Screener software.

A further series has as its system MCF-7 cells. Put plainly: Cellular proliferation EdU assay, MCF-7. The class given is cell-based. The note with it: Homo sapiens, MCF7, 48 h, EdU assay, two days; read-out: MCF-7 IC50. The protocol: (§2) Compounds were tested to assess inhibition of cellular proliferation in the breast cancer cell line MCF-7 and the CCNE1-amplified ovarian cell line OVCAR3.
(§3) MCF-7 and OVCAR3 cells in RPMI supplemented with 10% Fetal bovine serum were seeded into 384-well plates (Greiner, Kremsmunster, Austria; 781091), 30 μL/well, using a WellMate. The MCF7 and OVCAR3 cells were seeded at 800 and 1200 cells/well, respectively. Test compounds were added to the wells using an Echo 555 liquid handler and the plates were placed in incubator maintained at 37° C. and 5% CO2 and incubated for two days. On Day 2, an EdU assay was performed following the manufacturer's protocol (Thermo Fisher, C10351). The cells were read on an Acumen eX3 instrument. The IC50 values of test compounds were determined in Genedata by assessing the ratio of signal intensity at 488 nm to the area of signal at 405 nm.

A further series has as its system OVCAR3 cells. Put plainly: Cellular proliferation EdU assay, OVCAR3. The conditions noted are these: Homo sapiens, OVCAR-3, 48 h, EdU assay, two days; read-out: OVCAR3 IC50. It counts as cell-based, human. As to the method: as §2, §3
The nature of series [3]: CLint assessment in human liver microsomes (HLM). The class given is in vitro ADME. The note with it: 1 μM. The protocol:
After a preincubation with NADPH for 8 minutes, reactions were initiated through the addition of the test compound (final volume 250 μl) and incubated at 37° C. in a water bath for 30 minutes. […] Samples were shaken at 800 rpm for 2 minutes and centrifuged at 4000 rpm for 20 minutes at 4° C. to pellet precipitated protein. The supernatant fraction was diluted 1:5 with deionized water, shaken at 1000 rpm for 2 minutes, and further diluted 1:1 with deionized water. Samples were analyzed by LC-MS/MS. The t1/2 and the CLint of the compounds incubated in the LM, HLM, and HμREL assays as described above were calculated according to the following equations: […] where V (μl/×10^6 cells or mg protein) is the incubation volume (μl) divided by the number of cells (×10^6) or microsomal protein content (mg) in the incubation.

A short description of series [4]: Aqueous thermodynamic solubility, shake-flask. The class given is physicochemical. The conditions noted are these: aqueous phosphate buffer, 25 °C, pH 7.4, aqueous buffer, thermodynamic from solid, phosphate buffer 0.1 M, pH 7.4, 24 hours. The protocol: The DMSO was evaporated and the dried compounds were equilibrated in glass vials in aqueous phosphate buffer (0.1 M, pH 7.4) for 24 hours at 25° C. under constant stirring. The portion with the dissolved compound was then separated from the remainder through a double centrifugation with a tip wash in between to ensure that no residues of the dried compound were interfering. The solutions were diluted with purified water before quantification using UPLC/MS/MS.

Values after ≈ are worked out from the molar mass of the structure shown. Some results are limits rather than exact numbers.

Sequence of CDK1:CCNB1 (P06493 whole entry): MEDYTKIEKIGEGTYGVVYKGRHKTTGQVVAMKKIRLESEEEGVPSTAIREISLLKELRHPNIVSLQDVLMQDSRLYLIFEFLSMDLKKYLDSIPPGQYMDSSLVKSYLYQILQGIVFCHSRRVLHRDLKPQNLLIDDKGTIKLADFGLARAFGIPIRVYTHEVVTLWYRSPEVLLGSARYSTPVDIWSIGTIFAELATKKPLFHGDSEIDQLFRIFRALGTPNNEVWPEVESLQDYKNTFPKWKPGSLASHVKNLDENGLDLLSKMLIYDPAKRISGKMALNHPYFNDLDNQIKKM
Sequence of CDK1:CCNB1 (P14635 whole entry partner): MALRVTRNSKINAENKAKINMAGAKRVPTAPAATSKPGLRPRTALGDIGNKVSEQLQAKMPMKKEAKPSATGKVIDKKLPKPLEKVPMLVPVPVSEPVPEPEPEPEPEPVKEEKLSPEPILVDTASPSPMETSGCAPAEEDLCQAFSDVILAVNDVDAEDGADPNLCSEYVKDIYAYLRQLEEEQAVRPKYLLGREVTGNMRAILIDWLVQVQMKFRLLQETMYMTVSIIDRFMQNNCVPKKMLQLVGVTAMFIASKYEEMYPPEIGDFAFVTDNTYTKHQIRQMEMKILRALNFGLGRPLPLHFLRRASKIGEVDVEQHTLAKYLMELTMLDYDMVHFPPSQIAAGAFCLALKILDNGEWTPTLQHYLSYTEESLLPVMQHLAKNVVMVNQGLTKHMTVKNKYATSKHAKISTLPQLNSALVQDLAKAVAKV
Sequence of CDK4:CCND1 (P11802 whole entry): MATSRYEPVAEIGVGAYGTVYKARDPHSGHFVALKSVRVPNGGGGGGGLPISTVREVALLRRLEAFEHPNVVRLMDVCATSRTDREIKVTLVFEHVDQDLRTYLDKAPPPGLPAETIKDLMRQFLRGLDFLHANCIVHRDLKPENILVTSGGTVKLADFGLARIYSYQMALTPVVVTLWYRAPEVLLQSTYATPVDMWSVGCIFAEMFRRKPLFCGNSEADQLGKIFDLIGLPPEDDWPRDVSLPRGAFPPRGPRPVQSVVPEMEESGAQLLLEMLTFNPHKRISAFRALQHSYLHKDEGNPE
Sequence of CDK4:CCND1 (P24385 whole entry partner): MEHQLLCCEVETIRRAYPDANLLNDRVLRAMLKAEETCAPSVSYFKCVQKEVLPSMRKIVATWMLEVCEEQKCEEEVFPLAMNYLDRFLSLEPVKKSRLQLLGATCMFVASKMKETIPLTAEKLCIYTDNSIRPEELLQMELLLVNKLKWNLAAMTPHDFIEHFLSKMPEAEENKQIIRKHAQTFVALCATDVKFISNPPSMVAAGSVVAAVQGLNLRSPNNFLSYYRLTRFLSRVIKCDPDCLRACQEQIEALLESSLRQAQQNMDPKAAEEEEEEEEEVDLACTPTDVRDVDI

As to `CC[C@H](Nc1nc(N[C@H]2CCN(S(=O)(=O)c3cn(C)cn3)C2)c2ncn(C(C)C)c2n1)[C@@H](C)O` [Example 32, (2R,3S)-3-((9-isopropyl-6-(((S)-1-((1-methyl-1H-imidazol-4-yl)sulfonyl)pyrrolidin-3-yl)amino)-9H-purin-2-yl)amino)pentan-2-ol], the IC50 against CDK2:CCNE1 was 0.082 µM; at CDK1:CCNB1, 2.21 µM; on CDK4:CCND1 it was 28 µM; in series [1] (MCF7, 2 hours), 0.607 µM; in [2], more than 30 µM; in the series with MCF-7 cells, 3.01 µM. The IC50 in the series with OVCAR3 cells is 0.688 µM. Further, the “HLM CLint” value in series [3] was 73 µL/min/mg. The molecule further came in with a solubility at 24 h in [4] of more than 1000 µM.
Take `CCn1cnc2c(N[C@H]3CCN(S(=O)(=O)NC)C3)nc(N[C@@H]3c4ccccc4C[C@@H]3O)nc21` [Example 51, (S)-3-((9-ethyl-2-(((1R,2S)-2-hydroxy-2,3-dihydro-1H-inden-1-yl)amino)-9H-purin-6-yl)amino)-N-methylpyrrolidine-1-sulfonamide]: the IC50 at CDK2:CCNE1 amounted to 0.032 µM; at CDK1:CCNB1, 0.532 µM; at CDK4:CCND1, 1.9 µM; in series [1] (MCF7, 2 h), 0.157 µM; in [2], 7.4 µM; in the series with MCF-7 cells it was 0.536 µM. In the series with OVCAR3 cells, the IC50 stood at 0.324 µM. Also, in [3], the “HLM CLint” value was 212 µL/min/mg. This molecule also returned a solubility at 24 h in series [4] of 35 µM (≈ 16.5 µg/mL).
On to `CCNS(=O)(=O)N1CC[C@H](Nc2nc(N[C@@H](CO)CC3CC3)nc3c2ncn3CC)C1` (relative stereo) [Example 58, (S)-3-((2-(((R*)-1-cyclopropyl-3-hydroxypropan-2-yl)amino)-9-ethyl-9H-purin-6-yl)amino)-N-ethylpyrrolidine-1-sulfonamide], for which the IC50 at CDK2:CCNE1 was 0.017 µM; on CDK1:CCNB1, 0.671 µM; on CDK4:CCND1, 1.7 µM; in series [1] (MCF7, 2 h), 0.137 µM; in [2], more than 30 µM; with MCF-7 cells, 0.874 µM. Also, the IC50 in the series on OVCAR3 cells came out at 0.431 µM. The “HLM CLint” value in [3] is 202 µL/min/mg. The solubility at 24 h in series [4] amounted to 51.9 µM (≈ 23.5 µg/mL).
Regarding `CC[C@H](Nc1nc(N[C@H]2CCN(S(=O)(=O)NC[C@H]3COCCO3)C2)c2ncn(CC)c2n1)[C@@H](C)O` [Example 23, (S)—N—(((S)-1,4-dioxan-2-yl)methyl)-3-((9-ethyl-2-(((2R,3S)-2-hydroxypentan-3-yl)amino)-9H-purin-6-yl)amino)pyrrolidine-1-sulfonamide], the IC50 is 0.057 µM at CDK2:CCNE1; 2.6 µM at CDK1:CCNB1; more than 29.7 µM at CDK4:CCND1; 0.484 µM in series [1] (MCF7, 2 hours); more than 30 µM in series [2]; 1.95 µM in the series with MCF-7 cells. In addition, in the series on OVCAR3 cells, the IC50 came to 0.495 µM. The “HLM CLint” value in series [3] was 57.5 µL/min/mg. Besides, the solubility at 24 h in [4] worked out at 814 µM (≈ 417 µg/mL).
In the case of `CC[C@H](Nc1nc(N[C@H]2C[C@@H](C)N(S(C)(=O)=O)C2)c2ncn(C(C)C)c2n1)[C@@H](C)O` [Example 37, (2R,3S)-3-((9-isopropyl-6-(((3S,5R)-5-methyl-1-(methylsulfonyl)-pyrrolidin-3-yl)amino)-9H-purin-2-yl)amino)pentan-2-ol], the IC50 against CDK2:CCNE1 was 0.061 µM; on CDK1:CCNB1 it was 4.59 µM; on CDK4:CCND1, more than 29.7 µM; in series [1] (MCF7, 2 hours), 0.879 µM; in [2], more than 30 µM; with MCF-7 cells it was 2.79 µM. Moreover, the IC50 in the series on OVCAR3 cells worked out at 1.3 µM. In series [3], the “HLM CLint” value came out at 143 µL/min/mg. This molecule yielded a solubility at 24 h in series [4] of 414 µM (≈ 182 µg/mL).
Consider `CC(C)[C@H](CO)Nc1nc(N[C@H]2C[C@H](C)N(S(C)(=O)=O)C2)c2ncn(C(C)C)c2n1` [Example 35, (R)-2-((9-isopropyl-6-(((3S,5S)-5-methyl-1-(methylsulfonyl)-pyrrolidin-3-yl)amino)-9H-purin-2-yl)amino)-3-methylbutan-1-ol], for which the IC50 against CDK2:CCNE1 was 0.052 µM; on CDK1:CCNB1, 6.08 µM; at CDK4:CCND1, 11.2 µM; in series [1] (MCF7, 2 hours), 1.22 µM; in series [2], more than 30 µM; with MCF-7 cells, 3.33 µM. Further, the IC50 with OVCAR3 cells was found to be 1.62 µM. For the same molecule, the “HLM CLint” value in [3] is more than 300 µL/min/mg. The molecule further registered a solubility at 24 h in series [4] of 26.4 µM (≈ 11.6 µg/mL).

The IC50 is the concentration that gives 50% inhibition. By solubility is commonly meant the dissolved amount per volume that the medium holds. Higher therefore signals much dissolved substance.

The values above are taken from US20250197425A1, “2,6,9-TRISUBSTITUTED PURINES” (ASTRAZENECA AB, priority 2022, published 2025).
